Results from patent US6087334A, “Anti-diabetic peptides” (Amylin Pharmaceuticals, Inc., priority 1998, dated 2000).
Where a SMILES comes first, the peptide text is derived from it. Bridges are numbered along the chain shown (N, C = ends).

These compounds were tested against T1, C1a receptor (C1a-type calcitonin receptor) (Rattus norvegicus, UniProt P32214) (assay: biochemical). Details: HEK293 plasma membranes, [35S]-GTPγS 200 pM; read-out: ED50 (nM) Example B (C1a GTPγS).
T1 construct: expressed in transfected cells
T1 sequence (P32214 25-479 isoform P32214-2 limits assumed): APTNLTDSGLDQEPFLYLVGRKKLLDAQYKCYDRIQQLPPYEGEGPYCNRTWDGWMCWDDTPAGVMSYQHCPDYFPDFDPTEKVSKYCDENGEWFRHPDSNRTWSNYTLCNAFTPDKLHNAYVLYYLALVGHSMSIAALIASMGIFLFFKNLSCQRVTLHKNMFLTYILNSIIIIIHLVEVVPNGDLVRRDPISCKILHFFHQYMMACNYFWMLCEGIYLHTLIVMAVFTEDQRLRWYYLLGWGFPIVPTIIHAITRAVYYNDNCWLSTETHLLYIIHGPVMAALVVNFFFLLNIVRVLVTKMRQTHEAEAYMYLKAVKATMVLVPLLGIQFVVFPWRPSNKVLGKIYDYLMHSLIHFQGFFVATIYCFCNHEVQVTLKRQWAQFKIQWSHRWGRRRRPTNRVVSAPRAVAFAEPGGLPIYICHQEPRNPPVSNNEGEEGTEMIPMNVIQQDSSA
From the text: Peptide compounds of the present invention may be evaluated for agonist activity using the procedures described in Example B. The plasma membrane preparation of a 7-transmembrane-G-protein coupled receptor (GPCR) contains not only the receptor but also the G-proteins which constitute the first step in the intracellular signal transduction process when the receptor is activated by an agonist ligand. […] Agonist activation of a GPCR is accompanied by displacement of GDP by GTP from this site. Thus, measurement of the binding of a radiolabelled ligand, namely [^35 S]-GTPγS, for this binding site constitutes a measure of agonist potency for a given ligand. For agonism at the C1a receptor, a similar membrane preparation to that described below for the C1a binding studies is used. C1a pcDNA construction and transfection were carried out as previously described (Albrandt et al. 1993, FEBS Letters, 325:225-232). HEK293 cell lines showing stable expression of the rat C1a-type calcitonin receptor (C1a/293) or the human C1a-type calcitonin receptor (1154/293) were selected by G418 resistance and limiting dilution culture methods. Plasma membranes were collected from homogenized HEK293 cells and used in the [^35 S]-GTPγS assay. Individual test peptides at concentrations spanning 6 log units starting at around […] were examined for their ability to bind [^35 S]-GTPγS. Maximum agonist-specific binding was measured in the presence of 1 μM human calcitonin, constitutive binding was measured in the presence of buffer alone. Peptide potencies (EC50 's for concentration response curves) were calculated by non-linear regression using Prism™ (version 2.01, GraphPAD Software, San Diego, Calif.).
[^35 S]-GTPγS C1a Agonist Studies
Evaluation of the agonist activity of compounds versus the C1a receptor was carried out as follows:
Reference peptides used in these studies were purchased from Bachem (Torrance, Calif.). All other chemicals were of the highest commercial grade. [^35 S]-GTPγS was purchased from NEN Life Science Products, Inc., Pittsburgh, Pa. [^125 I]-human calcitonin was purchased from Amersham Pharmacia Biotech, Inc., Piscataway, N.J.
Methods for C1a pcDNA construction and transfection have been previously described (Albrandt, et al. 1993, FEBS Letters, 325:225-232). HEK293 cell lines stably expressing the rat C1a-type calcitonin receptor (C1a/293) or the human C1a-type calcitonin receptor (1154/293) were selected by G418 resistance and limiting dilution culture methods.
Confluent cells were detached from tissue culture flasks by incubation with 5 mM EDTA in PBS. Cells were homogenized in ice-cold 20 mM HEPES, pH 7.4 with a Polytron homogenizer. Plasma membranes were collected using three cycles of washing in fresh buffer followed by centrifugation for 15 minutes at 48,000×g. The final membrane pellet was resuspended in 20 mM HEPES buffer containing 0.2 mM phenylmethylsulfonyl fluoride (PMSF) and stored at -70° C.
Assay buffer contained 1 μM GDP, 1 mM EDTA, 5 mM MgCl2, 20 mM Hepes, and 150 mM NaCl, pH 7.4. Membranes (7.5 μg membrane protein/well), [^35 S]-GTPγS (200 pM), and peptides were combined in 200 μL buffer in 96-well microtiter plates. After a 75 minute incubation at room temperature, well contents were harvested onto GF/B glass fiber pads using a Tomtec Mach II plate harvestor (Hamden, Conn.). Dried pads were combined with scintillant and counted on a Wallac LKB Beta Plate scintillation counter. For concentration response curves, samples were run in duplicate over a 6 log concentration range starting at 10^-6 M or 10^-7 M. Maximum agonist-specific binding was measured in the presence of 1 μM human calcitonin, constitutive binding was measured in the presence of buffer alone.
Peptide potencies (1C50 's for competitive binding, and EC50 's for concentration response curves) were calculated by non-linear regression using Prism (version 2.01, GraphPAD Software, San Diego, Calif.).
For CC(C)C[C@H](NC(=O)[C@H](CCCNC(=N)N)NC(=O)[C@H](C)NC(=O)[C@@H](NC(=O)[C@H](C)NC(=O)[C@@H]1CSSC[C@H](NC(=O)[C@@H](N)CCCCN)C(=O)N[C@@H](CC(N)=O)C(=O)N[C@@H]([C@@H](C)O)C(=O)N[C@@H](C)C(=O)N[C@@H]([C@@H](C)O)C(=O)N1)[C@@H](C)O)C(=O)N[C@@H](C)C(=O)N[C@@H](C)C(=O)N[C@@H](Cc1ccccc1)C(=O)N[C@@H](CC(C)C)C(=O)N[C@@H](C)C(=O)N[C@@H](CCCNC(=N)N)C(=O)N[C@@H](CO)C(=O)N[C@@H](CO)C(=O)NCC(=O)N[C@@H](Cc1ccc(O)cc1)C(N)=O [Example 1] (H-KCNTATCATARLAAFLARSSGY-NH2; disulfide 2-7), the EC50 was 0.7 nM.
CC(C)C[C@H](NC(=O)[C@H](CCCNC(=N)N)NC(=O)[C@H](C)NC(=O)[C@@H](NC(=O)[C@H](C)NC(=O)[C@@H]1CSSC[C@H](N)C(=O)N[C@@H](CC(N)=O)C(=O)N[C@@H]([C@@H](C)O)C(=O)N[C@@H](C)C(=O)N[C@@H]([C@@H](C)O)C(=O)N1)[C@@H](C)O)C(=O)N[C@@H](C)C(=O)N[C@@H](C)C(=O)N[C@@H](Cc1ccccc1)C(=O)N[C@@H](CC(C)C)C(=O)N[C@@H](C)C(=O)N[C@@H](CCCNC(=N)N)C(=O)N[C@@H](CO)C(N)=O [Example 3] (H-CNTATCATARLAAFLARS-NH2; disulfide 1-6) gave an EC50 of 1.2 nM.
Work on CC(C)C[C@H](NC(=O)[C@H](CCCNC(=N)N)NC(=O)[C@H](C)NC(=O)[C@@H](NC(=O)[C@H](C)NC(=O)[C@@H]1CSSC[C@H](NC(=O)[C@@H](N)CCCCN)C(=O)N[C@@H](CC(N)=O)C(=O)N[C@@H]([C@@H](C)O)C(=O)N[C@@H](C)C(=O)N[C@@H]([C@@H](C)O)C(=O)N1)[C@@H](C)O)C(=O)N[C@@H](C)C(=O)N[C@@H](CC(N)=O)C(=O)N[C@@H](Cc1ccccc1)C(=O)N[C@@H](CC(C)C)C(=O)N[C@H](C(=O)N[C@@H](CCCNC(=N)N)C(=O)N[C@@H](CO)C(=O)N[C@@H](CO)C(=O)NCC(=O)N[C@@H](Cc1ccc(O)cc1)C(N)=O)C(C)C [Example 5] (H-KCNTATCATARLANFLVRSSGY-NH2; disulfide 2-7) yielded an EC50 of 5.5 nM.
CC(C)C[C@H](NC(=O)[C@H](CCCNC(=N)N)NC(=O)[C@H](C)NC(=O)[C@@H](NC(=O)[C@H](C)NC(=O)[C@H](C)NC(=O)[C@@H](NC(=O)[C@H](CO)NC(=O)[C@@H](N)CC(C)C)[C@@H](C)O)[C@@H](C)O)C(=O)N[C@@H](C)C(=O)N[C@@H](C)C(=O)N[C@@H](Cc1ccccc1)C(=O)N[C@@H](CC(C)C)C(=O)N[C@@H](C)C(=O)N[C@@H](CCCNC(=N)N)C(=O)N[C@@H](CO)C(N)=O [Example 6] (H-LSTAATARLAAFLARS-NH2) was tested, and the EC50 was 0.58 nM.
